Data reported in patent publication US5591758A, “Organic nitrates, processes for their preparation and their use in the treatment of cardiovascular diseases” (Laboratoires Hoechst, SA, priority 1991, dated 1997).
Values joined by “and” are separate entries in the source; they are usually repeats but may differ in a detail not shown here. Equal values may be shown once. Where a name gives a salt, the structure may show the parent alone.

System: anaesthetised dogs
Assay: Tachyphylaxis model on anaesthetised dogs (repeated i.d. administration)
Type: in vivo, dogs (labrador/harrier cross)
Parameters: Δdp/dt average / ΔBPs / ΔBPd / ΔLVEDP / ΔHR / ΔBPs average / ΔBPd average / ΔLVEDP average / ΔHR average: unit not given here
Conditions: for Δdp/dt / ΔBPd / ΔBPs / ΔHR / ΔLVEDP: single dog
Protocol: Comparison with isosorbide mononitrate (IS-5-MN).
The product (46) is tested in a tachyphylaxis model on anaesthetised dogs. IS-5-MN is used as reference substance.
8 dogs of each sex, weighing between 16 and 24 kg, are used. These dogs are the progeny of a labrador/harrier cross. Anaesthesia is induced with the aid of sodium pentobarbital (45 mg/kg i.v.) and maintained by i.v. perfusion (flow rate: 8 mg/kg/h). The animals are ventilated, with the aid of a "Bird Mark 7" respirator, using ambient air, and catheterised. […] The arterial blood gases are measured at regular intervals.
IS-5-MN is also dissolved in water and given i.d. in a dosage of 5 mg/kg in a volume of 10 ml/animal.
Three hours (in the case of IS-5-MN) or four hours (in the case of (46)) after the first administration, the compounds are readministered in the same dosage and by the same route. The haemodynamic parameter chosen for the study of the tachyphylaxis is the systolic blood pressure (BPs), insofar as this parameter is very sensitive to the administration of the compounds.

[1] = i.d., IS-5-MN 5 mg/kg, (46) 0.75 mg/kg
[2] = n = 4, 1st administration, 0.75 mg/kg i.d., 5 min
[3] = n = 4, 1st administration, 0.75 mg/kg i.d., 10 min
[4] = n = 4, 1st administration, 0.75 mg/kg i.d., 15 min
[5] = n = 4, 1st administration, 0.75 mg/kg i.d., 30 min
[6] = n = 4, 1st administration, 0.75 mg/kg i.d., 60 min
[7] = n = 4, 1st administration, 0.75 mg/kg i.d., 120 min
[8] = n = 4, 1st administration, 0.75 mg/kg i.d., 180 min
[9] = n = 4, 1st administration, 0.75 mg/kg i.d., 240 min
[10] = n = 4, 2nd administration, 0.75 mg/kg i.d., 5 min
[11] = n = 4, 2nd administration, 0.75 mg/kg i.d., 10 min
[12] = n = 4, 2nd administration, 0.75 mg/kg i.d., 15 min
[13] = n = 4, 2nd administration, 0.75 mg/kg i.d., 30 min
[14] = n = 4, 2nd administration, 0.75 mg/kg i.d., 60 min
[15] = n = 4, 2nd administration, 0.75 mg/kg i.d., 120 min
[16] = 1st administration, 0.75 mg/kg i.d., 5 min, monohydrochloride, 0.75 mg/kg
[17] = 1st administration, 0.75 mg/kg i.d., 10 min, monohydrochloride, 0.75 mg/kg
[18] = 1st administration, 0.75 mg/kg i.d., 15 min, monohydrochloride, 0.75 mg/kg
[19] = 1st administration, 0.75 mg/kg i.d., 30 min, monohydrochloride, 0.75 mg/kg
[20] = 1st administration, 0.75 mg/kg i.d., 60 min, monohydrochloride, 0.75 mg/kg
[21] = 1st administration, 0.75 mg/kg i.d., 120 min, monohydrochloride, 0.75 mg/kg
[22] = 1st administration, 0.75 mg/kg i.d., 180 min, monohydrochloride, 0.75 mg/kg
[23] = 1st administration, 0.75 mg/kg i.d., 240 min, monohydrochloride, 0.75 mg/kg
[24] = 2nd administration, 0.75 mg/kg i.d., 5 min
[25] = 2nd administration, 0.75 mg/kg i.d., 5 min, monohydrochloride, 0.75 mg/kg
[26] = 2nd administration, 0.75 mg/kg i.d., 10 min
[27] = 2nd administration, 0.75 mg/kg i.d., 10 min, monohydrochloride, 0.75 mg/kg
[28] = 2nd administration, 0.75 mg/kg i.d., 15 min, monohydrochloride, 0.75 mg/kg
[29] = 2nd administration, 0.75 mg/kg i.d., 30 min, monohydrochloride, 0.75 mg/kg
[30] = 2nd administration, 0.75 mg/kg i.d., 60 min, monohydrochloride, 0.75 mg/kg
[31] = 2nd administration, 0.75 mg/kg i.d., 120 min, monohydrochloride, 0.75 mg/kg

Q: Which results are given for O=C(CNC(=O)[C@@H]1CSCN1)N[C@H]1CO[C@H]2[C@@H]1OC[C@@H]2O[N+](=O)[O-] [Compound 46, 5-[[2-[[(4-L-Thiazolidinyl)carbonyl]amino]-1oxoethyl]amino]-5-deoxy-2-O-nitro-1,4:3,6-dianhydro-L-iditol monohydrochloride]?
A: fall in the BPs, first administration, on average (0.75 mg/kg i.d.): -30 mmHg; period of action (compared with IS-5-MN, first administration): longer; development of tachyphylaxis after repeated administration (dogs, two i.d. administrations): absence of the development of tachyphylaxis; maximum fall in the BP after second administration [1]: -33 mmHg; time of maximum effect on BPs after first administration [1]: 60 min; time of maximum fall in the BP after second administration [1]: 60 min; ΔBPd average [2]: -4; ΔBPs average [2]: -5; ΔHR average [2]: -1; ΔLVEDP average [2]: -0; Δdp/dt average [2]: 0; ΔBPd average [3]: -11; ΔBPs average [3]: -18; ΔHR average [3]: -1; ΔLVEDP average [3]: -2; Δdp/dt average [3]: -100; ΔBPd average [4]: -16; ΔBPs average [4]: -26; ΔHR average [4]: -1; ΔLVEDP average [4]: -2; Δdp/dt average [4]: -125; ΔBPd average [5]: -20; ΔBPs average [5]: -30; ΔHR average [5]: -2; ΔLVEDP average [5]: -2; Δdp/dt average [5]: -150; ΔBPd average [6]: -20; ΔBPs average [6]: -33; ΔHR average [6]: -8; ΔLVEDP average [6]: -3; Δdp/dt average [6]: -200; ΔBPd average [7]: -20; ΔBPs average [7]: -31; ΔHR average [7]: -10; ΔLVEDP average [7]: -4; Δdp/dt average [7]: -250; ΔBPd average [8]: -15; ΔBPs average [8]: -24; ΔHR average [8]: -6; ΔLVEDP average [8]: -4; Δdp/dt average [8]: -150; ΔBPd average [9]: -7; ΔBPs average [9]: -12; ΔHR average [9]: 0; ΔLVEDP average [9]: -4; Δdp/dt average [9]: 25; ΔBPd average [10]: -5; ΔBPs average [10]: -6; ΔHR average [10]: 0; ΔLVEDP average [10]: 0; Δdp/dt average [10]: -50; ΔBPd average [11]: -6; ΔBPs average [11]: -11; ΔHR average [11]: 0; ΔLVEDP average [11]: 0; Δdp/dt average [11]: -75; ΔBPd average [12]: -10; ΔBPs average [12]: -18; ΔHR average [12]: -1; ΔLVEDP average [12]: 0; Δdp/dt average [12]: -125; ΔBPd average [13]: -15; ΔBPs average [13]: -25; ΔHR average [13]: -1; ΔLVEDP average [13]: -1; Δdp/dt average [13]: -225; ΔBPd average [14]: -19; ΔBPs average [14]: -33; ΔHR average [14]: -4; ΔLVEDP average [14]: -2; Δdp/dt average [14]: 350; ΔBPd average [15]: -15; ΔBPs average [15]: -26; ΔHR average [15]: -2; ΔLVEDP average [15]: -2; Δdp/dt average [15]: -275; Δdp/dt (1st administration, 0.75 mg/kg i.d., 5 min): 0; ΔBPd [16]: -5 and 0; ΔBPs [16]: -5 and -10 and 0; ΔHR [16]: 0 and -5; ΔLVEDP [16]: 0 and -1; Δdp/dt (1st administration, 0.75 mg/kg i.d., 10 min): -100; ΔBPd [17]: -10 and -15; ΔBPs [17]: -15 and -20; ΔHR [17]: 0 and -5; ΔLVEDP [17]: -2 and 0 and -3; ΔBPd [18]: -15 and -20; ΔBPs [18]: -25 and -20 and -35; ΔHR [18]: 0 and -5; ΔLVEDP [18]: -3 and -2 and 1; Δdp/dt [18]: -100 and -200; ΔBPd [19]: -20 and -15 and -25; ΔBPs [19]: -30 and -20 and -40; ΔHR [19]: -5 and 0; ΔLVEDP [19]: -4 and -2 and 1; Δdp/dt [19]: -100 and -200; ΔBPd [20]: -20 and -25 and -10; ΔBPs [20]: -30 and -35 and -15 and -50; ΔHR [20]: -10 and -5; ΔLVEDP [20]: -3 and -2 and -4; Δdp/dt [20]: -200 and -300 and 0; ΔBPd [21]: -20 and -25 and -10; ΔBPs [21]: -30 and -35 and -15 and -45; ΔHR [21]: -15 and 5; ΔLVEDP [21]: -2 and -6 and -4; Δdp/dt [21]: -200 and -300; ΔBPd [22]: -20 and -5 and -15; ΔBPs [22]: -25 and -30 and -10; ΔHR [22]: -10 and -15 and 10; ΔLVEDP [22]: -3 and -2 and -7 and -4; Δdp/dt [22]: -200 and -300 and -100 and 0; ΔBPd [23]: -10 and -20 and 0; ΔBPs [23]: -15 and -20 and 0; ΔHR [23]: -5 and -10 and 0 and 15; ΔLVEDP [23]: -4 and -3 and -7; Δdp/dt [23]: -100 and 0 and 300; ΔBPd [24]: -5; ΔHR [24]: 0; ΔBPs [25]: -5 and -10; ΔLVEDP [25]: 0 and 1; Δdp/dt [25]: 0 and -100; ΔHR [26]: 0; ΔLVEDP [26]: 0; ΔBPd [27]: -10 and -5; ΔBPs [27]: -15 and -5 and -10; Δdp/dt [27]: 0 and -100 and -200; ΔBPd [28]: -15 and -10 and -5; ΔBPs [28]: -20 and -15; ΔHR [28]: -5 and 0; ΔLVEDP [28]: -1 and 2 and 0; Δdp/dt [28]: -100 and 0 and -300; ΔBPd [29]: -15 and -10 and -25; ΔBPs [29]: -25 and -20 and -35; ΔHR [29]: 0 and -5; ΔLVEDP [29]: -1 and 0 and -2; Δdp/dt [29]: -100 and -600; ΔBPd [30]: -15 and -10 and -35; ΔBPs [30]: -30 and -20 and -50; ΔHR [30]: -5 and -10 and 0; ΔLVEDP [30]: -1 and -3; Δdp/dt [30]: -100 and -200 and -900; ΔBPd [31]: -10 and -15 and -25; ΔBPs [31]: -20 and -30 and -35; ΔHR [31]: 0 and -15 and 5; ΔLVEDP [31]: -1 and -2 and -3; Δdp/dt [31]: -100 and -200 and -600
